One may read the IC50 as the concentration needed to halve the response being measured. High values mean lower potency, low ones higher potency.

We go through 15 compounds from patent US6277859A, “Morphinan derivative and its pharmaceutical applications” (priority 1992, dated 2001).

Structures can show the parent of a compound that is named as a salt.

One assay deals with T1, μ receptor (Mus musculus, UniProt P42866).
T1 construct: The isolated vas deference was filled with Krebes-Henseleit solution; from tissue; host or cells: isolated vas deferens of male ddy mouse
Kind of assay: Ke with naloxone in isolated mouse vas deference preparation. The assay is classed as cell-based, mouse (male ddy). As to the method: (§1) A male ddy mouse was used in this test. The isolated vas deference was filled with Krebes-Henseleit solution (NaCl 118 mM; KCl 4.7 mM; CaCl2 2.5 mM; KH2 PO4 1.1 mM; NaHCO3 25 mM; and glucose 10 mM) warmed to 37° C. and suspended in a Magnus tube ventilated with 5% carbon dioxide and 95% oxygen. Electrical stimulus was performed at 0.1 Hz for 5.0 ms by means of ring-shaped platinum electrodes located above and below. Tissue contractions were recorded on a polygraph using an isometric transducer.
(§2) Then after adequately washing with nutrient solution and the contraction reaction stabilized, naloxone, a μ […], NTI, a δ […], or norBNI, a κ […], were added and the test compound was again cumulatively added after roughly 20 minutes. The Ke value was calculated using the following calculation formula from the difference in the efficacies of both agonists.
(§3) Ke=[Conc. of added agonist]/(IC50 ratio-1)
(§4) IC50 ratio IC50 in the presence of agonist/IC50 in the absence of agonist

Another assay addresses T2, δ receptor (Mus musculus, UniProt P32300).
T2 construct: The isolated vas deference was filled with Krebes-Henseleit solution; from tissue; host or cells: isolated vas deferens of male ddy mouse
Kind of assay: Ke with NTI in isolated mouse vas deference preparation. The assay is classed as cell-based, mouse (male ddy). The conditions noted are these: for Ke NTI: NTI (δ). Here is the method:
as §1, §2, §3, §4

In the next assay the target is T3, κ receptor (Mus musculus, UniProt P33534).
T3 construct: The isolated vas deference was filled with Krebes-Henseleit solution; from tissue; host or cells: isolated vas deferens of male ddy mouse
Kind of assay: Ke with norBNI in isolated mouse vas deference preparation. The assay is classed as cell-based, mouse (male ddy). The conditions noted are these: for Ke norBNI: norBNI (κ). As to the method: as §1, §2, §3, §4

The subject of another assay is Wistar rats. Kind of assay: Evaluation of diuretic action. The assay is classed as in vivo, rat (male Wistar). The conditions noted are these: sc, rat, s.c., urine output for 5 h after 20 ml/kg saline oral; for ED500: read-out: ED500, diuretic action (dose giving urine output of 500, non-dosed group = 100); for ED200: read-out: ED200, diuretic action (dose giving urine output of 200, non-dosed group = 100). As to the method:
Evaluation of Diuretic Action
7-8 week old male Wistar rats were used in this test after prohibiting from drinking water for 1 hour before testing. After discharging any urine accumulated in the bladder by gently stimulating the lower abdomens of the animals, the drug was administered subcutaneously. After 30 minutes, the animals were then forcibly given 20 ml/kg of physiological saline orally. The animals were then placed in metabolic cages immediately after administration of the drug (2 animals/cage) and urine output for 5 hours after loading with physiological saline was measured. Drug efficacy was expressed in the form of those doses resulting in urine outputs of 200 and 500, respectively, when the urine output of a non-dosed group was taken to be 100. Those doses were expressed as the ED200 and ED500 values, respectively.

The test system of assay [1] is isolated mouse vas deference. Kind of assay: Opioid activity test using the isolated mouse vas deference preparation (electrically stimulated contractions). The assay is classed as cell-based, mouse (male ddy). The following applies: suppression of electrically stimulated contractions. Here is the method:
Opioid Activity Test Using the Isolated Mouse Vas Deference Preparation
as §1, §2

T3 sequence (P33534 whole entry): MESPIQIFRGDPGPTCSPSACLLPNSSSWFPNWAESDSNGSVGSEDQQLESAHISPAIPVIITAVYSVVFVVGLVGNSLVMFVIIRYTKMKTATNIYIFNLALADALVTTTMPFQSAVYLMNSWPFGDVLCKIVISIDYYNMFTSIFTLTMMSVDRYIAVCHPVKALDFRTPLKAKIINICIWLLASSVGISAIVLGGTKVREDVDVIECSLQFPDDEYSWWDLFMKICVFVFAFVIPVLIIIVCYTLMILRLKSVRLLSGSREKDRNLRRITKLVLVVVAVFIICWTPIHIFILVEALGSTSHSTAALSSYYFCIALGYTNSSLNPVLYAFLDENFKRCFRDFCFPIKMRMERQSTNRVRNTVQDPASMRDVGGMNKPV
T1 sequence (P42866 whole entry): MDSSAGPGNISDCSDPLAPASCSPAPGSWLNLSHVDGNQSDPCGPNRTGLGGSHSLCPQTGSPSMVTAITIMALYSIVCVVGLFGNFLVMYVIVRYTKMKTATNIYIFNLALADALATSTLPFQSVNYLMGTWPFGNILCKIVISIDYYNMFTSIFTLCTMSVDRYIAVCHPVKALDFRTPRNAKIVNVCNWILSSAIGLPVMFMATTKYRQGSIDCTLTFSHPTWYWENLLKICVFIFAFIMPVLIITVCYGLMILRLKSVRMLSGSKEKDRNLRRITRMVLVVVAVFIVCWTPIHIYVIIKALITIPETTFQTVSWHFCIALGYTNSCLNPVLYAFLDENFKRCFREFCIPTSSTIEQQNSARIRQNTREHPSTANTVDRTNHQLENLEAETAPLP
T2 sequence (P32300 whole entry): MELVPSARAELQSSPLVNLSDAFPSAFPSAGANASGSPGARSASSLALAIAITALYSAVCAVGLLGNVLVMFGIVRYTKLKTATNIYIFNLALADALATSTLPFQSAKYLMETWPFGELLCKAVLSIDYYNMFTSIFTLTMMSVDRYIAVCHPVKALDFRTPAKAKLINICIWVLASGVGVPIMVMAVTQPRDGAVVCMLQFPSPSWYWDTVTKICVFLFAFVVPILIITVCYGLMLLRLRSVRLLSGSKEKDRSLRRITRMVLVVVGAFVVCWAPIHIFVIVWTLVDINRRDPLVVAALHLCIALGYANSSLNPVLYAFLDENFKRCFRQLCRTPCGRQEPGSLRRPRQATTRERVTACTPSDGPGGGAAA

Consider `CN(C(=O)CCc1ccccc1)[C@H]1CC[C@@]2(O)[C@H]3Cc4ccc(O)c5c4[C@@]2(CCN3CC2CC2)[C@H]1O5` [Compound 22, 17-Cyclopropylmethyl-4,5α-epoxy-3,14β-dihydroxy-6α-(N-methyl-3-phenylpropionamido)morphinan.tartrate], for which, at μ receptor, the “Ke Naloxone” value amounted to 800 nM. Also, the “Ke NTI” value on δ receptor turned out to be 545 nM. Also, at κ receptor, the “selective agonist for κ receptors (in words)” value is reported as “selective agonists for κ receptors” and the “Ke norBNI” value is listed as 5.53 nM. Besides, in the assay with Wistar rats, the ED500 turned out to be 17 µg/kg and the ED200 turned out to be 0.95 µg/kg.
Take `CN(C(=O)/C=C/c1ccccc1)[C@H]1CC[C@@]2(O)[C@H]3Cc4ccc(O)c5c4[C@@]2(CCN3CC2CC2)[C@H]1O5` [Compound 24, 17-cyclopropylmethyl-3,14β-dihydroxy-4,5α-epoxy-6α-(N-methylcinnamamido)morphinan.hydrochloride]: the “Ke Naloxone” value on μ receptor came out at 16.5 nM. Also, on δ receptor, the “selective agonist for δ receptors (in words)” value is “selective agonists for δ receptors” and the “Ke NTI” value was found to be 0.426 nM. The “Ke norBNI” value at κ receptor amounted to 4.90 nM. For the same compound, in the assay on Wistar rats, the ED500 was 6.3 µg/kg and the ED200 was 0.69 µg/kg.
With `CN(C(=O)COc1ccccc1)[C@H]1CC[C@@]2(O)[C@H]3Cc4ccc(O)c5c4[C@@]2(CCN3CC2CC2)[C@H]1O5` [Compound 38, 17-cyclopropylmethyl-3,14β-dihydroxy-4,5α-epoxy-6α-(N-methylphenoxyacetamido) morphinan.hydrochloride], at μ receptor, the “Ke Naloxone” value is 411 nM. In addition, the “Ke NTI” value at δ receptor was found to be 16.6 nM. Moreover, on κ receptor, the “selective agonist for κ receptors (in words)” value is “selective agonists for κ receptors” and the “Ke norBNI” value was 4.65 nM. Further, in the assay with Wistar rats, the ED200 worked out at 3.8 µg/kg.
In the case of `CCCCCC(=O)N(C)[C@H]1CC[C@@]2(O)[C@H]3Cc4ccc(O)c5c4[C@@]2(CCN3CC2CC2)[C@H]1O5` [Compound 39, 17-cyclopropylmethyl-3,14β-dihydroxy-4,5α-epoxy-6α-(N-methylhexanamido)morphinan.tartrate], the “Ke Naloxone” value on μ receptor was determined as 89.9 nM. Further, the “Ke NTI” value at δ receptor was determined as 99.3 nM. Also, at κ receptor, the “selective agonist for κ receptors (in words)” value is on record as “selective agonists for κ receptors” and the “Ke norBNI” value was 1.01 nM. Further, the ED200 with Wistar rats came to 4.1 µg/kg.
Consider `CN(C(=O)OCc1ccc([N+](=O)[O-])cc1)[C@H]1CC[C@@]2(O)[C@H]3Cc4ccc(O)c5c4[C@@]2(CCN3CC2CC2)[C@H]1O5` [Compound 43, 17-cyclopropylmethyl-3,14β-dihydroxy-4,5α-epoxy-6α-(N-methyl-4-nitrobenzyloxycarbamido)morphinan.hydrochloride], for which the “Ke Naloxone” value on μ receptor is listed as 409 nM. Moreover, on δ receptor, the “Ke NTI” value amounted to 22.5 nM. At κ receptor, the “selective agonist for κ receptors (in words)” value is “selective agonists for κ receptors” and the “Ke norBNI” value is 5.31 nM. In the assay on Wistar rats, the ED500 worked out at 4.4 µg/kg and the ED200 stood at 0.54 µg/kg.
In turn, `CN(C(=O)/C=C/c1cccc(C(F)(F)F)c1)[C@@H]1CC[C@@]2(O)[C@H]3Cc4ccc(O)c5c4[C@@]2(CCN3CC2CC2)[C@H]1O5` [Compound 60, 17-cyclopropylmethyl-3,14β-dihydroxy-4,5α-epoxy-60-(N-methyl-3-trifluoromethylcinnaiamido)morphinan.tartrate] had an IC50 in assay [1] of 0.468 nM. Further, the “Ke NTI” value at δ receptor was found to be 291 nM. In addition, at κ receptor, the “selective agonist for κ receptors (in words)” value is “selective agonists for κ receptors” and the “Ke norBNI” value is given as 3.20 nM.
For `CN(C(=O)/C=C/c1ccoc1)[C@@H]1CC[C@@]2(O)[C@H]3Cc4ccc(O)c5c4[C@@]2(CCN3CC2CC2)[C@H]1O5` [Compound 61, 17-cyclopropylmethyl-3,14β-dihydroxy-4,5α-epoxy-6β-[N-methyl-trans-3-(3-furyl)acrylamido]morphinan.tartrate], the IC50 in assay [1] was found to be 0.42 nM. In addition, the “Ke norBNI” value at κ receptor is 0.164 nM. For the same compound, in the assay on Wistar rats, the ED200 came out at 3.2 µg/kg.
Turning to `CN(C(=O)/C=C/c1ccco1)[C@@H]1CC[C@@]2(O)[C@H]3Cc4ccc(O)c5c4[C@@]2(CCN3CC2CC2)[C@H]1O5` [Compound 70, 17-cyclopropylmethyl-3,14β-dihydroxy-4,5α-epoxy-62. [N-methyl-trans-3-(2-furyl)acrylamido] morphinan.hydrochloride], the IC50 in assay [1] worked out at 0.545 nM. For the same compound, at κ receptor, the “selective agonist for κ receptors (in words)” value was “selective agonists for κ receptors” and the “Ke norBNI” value was 0.198 nM.
In the case of `CN(C(=O)C#Cc1ccccc1)[C@H]1CC[C@@]2(O)[C@H]3Cc4ccc(O)c5c4[C@@]2(CCN3CC2CC2)[C@H]1O5` [Compound 84, 17-cyclopropylmethyl-3,14β-dihydroxy-4,5α-epoxy-6α-(N-methyl-3-phenylpropiolamido)morphinan.hydrochloride], on μ receptor, the “Ke Naloxone” value amounted to 35.4 nM. At δ receptor, the “selective agonist for δ receptors (in words)” value is recorded as “selective agonists for δ receptors” and the “Ke NTI” value is 0.309 nM. The “Ke norBNI” value on κ receptor worked out at 5.69 nM. In addition, in the assay with Wistar rats, the ED200 amounted to 2.8 µg/kg.
Take `CN(C(=O)/C=C/c1ccoc1)[C@H]1CC[C@@]2(O)[C@H]3Cc4ccc(O)c5c4[C@@]2(CCN3CC2CC2)[C@H]1O5` [Compound 89, 17-cyclopropylmethyl-3,14β-dihydroxy-4,5α-epoxy-6α-[N-methyl-trans-3-(3-furyl)acrylamido]morphinane.tartrate]: the “Ke Naloxone” value at μ receptor was found to be 18.3 nM. Moreover, the “Ke NTI” value at δ receptor is recorded as 15.6 nM. Further, on κ receptor, the “selective agonist for κ receptors (in words)” value was “selective agonists for κ receptors” and the “Ke norBNI” value was determined as 0.85 nM. For the same compound, the ED200 in the assay on Wistar rats amounted to 1.2 µg/kg.
For `CN(C(=O)/C=C/c1cccc([N+](=O)[O-])c1)[C@H]1CC[C@@]2(O)[C@H]3Cc4ccc(O)c5c4[C@@]2(CCN3CC2CC2)[C@H]1O5` [Compound 97, 17-cyclopropylmethyl-3,14β-dihydroxy-4,5α-epoxy-6α-(N-methyl-3-nitrocinnamamido)morphinanphosphate], on μ receptor, the “Ke Naloxone” value was 163 nM. For the same compound, on δ receptor, the “selective agonist for δ receptors (in words)” value is given as “selective agonists for δ receptors” and the “Ke NTI” value was determined as 2.92 nM. For the same compound, on κ receptor, the “Ke norBNI” value worked out at 13.9 nM. In addition, in the assay with Wistar rats, the ED200 worked out at 4.5 µg/kg.
On to `CN(C(=O)C#Cc1ccccc1)[C@@H]1CC[C@@]2(O)[C@H]3Cc4ccc(O)c5c4[C@@]2(CCN3CC2CC2)[C@H]1O5` [Compound 101, 17-cyclopropylmethyl-3,14β-dihydroxy-4,5α-epoxy-6β-(N-methyl-3-phenylpropiolamido)morphinan.hydrochloride], for which, on μ receptor, the “Ke Naloxone” value worked out at 25.4 nM. Besides, the “Ke NTI” value on δ receptor turned out to be 31.6 nM. Further, on κ receptor, the “selective agonist for κ receptors (in words)” value was “selective agonists for κ receptors” and the “Ke norBNI” value amounted to 0.0425 nM. In addition, the ED200 in the assay on Wistar rats amounted to 8.9 µg/kg.
Regarding `CN(C(=O)/C=C/c1cccc(F)c1)[C@@H]1CC[C@@]2(O)[C@H]3Cc4ccc(O)c5c4[C@@]2(CCN3CC2CC2)[C@H]1O5` [Compound 102, 17-cyclopropylmethyl-3,14β-dihydroxy-4,5α-epoxy-6β-(N-methyl-3-fluorocinnamamido)morphinan.tartrate], the IC50 in assay [1] was determined as 1.6 nM. At δ receptor, the “Ke NTI” value came out at 276 nM. On κ receptor, the “selective agonist for κ receptors (in words)” value is reported as “selective agonists for κ receptors” and the “Ke norBNI” value was determined as 2.37 nM. Moreover, the ED200 with Wistar rats is 1.4 µg/kg.
Turning to `CN(C(=O)C#Cc1ccc(C(F)(F)F)cc1)[C@H]1CC[C@@]2(O)[C@H]3Cc4ccc(O)c5c4[C@@]2(CCN3CC2CC2)[C@H]1O5` [Compound 126, 17-Cyclopropylmethyl-3,14β-dihydroxy-4,5α-epoxy-6α-[N-methyl-3-(4-trifluoromethylphenyl)propiolamido] morphinan.0.5 tartrate], at μ receptor, the “Ke Naloxone” value was determined as 40.2 nM. For the same compound, at δ receptor, the “selective agonist for δ receptors (in words)” value is reported as “selective agonists for δ receptors” and the “Ke NTI” value came to 0.0065 nM. Further, the “Ke norBNI” value on κ receptor is given as 1.20 nM.
Consider `CC(=O)Oc1ccc2c3c1O[C@H]1[C@H](N(C)C(=O)/C=C/c4cccc(C(F)(F)F)c4)CC[C@@]4(O)[C@@H](C2)N(CC2CC2)CC[C@]314` [Compound 141, 17-cyclopropylmethyl-3-acetoxy-14β-hydroxy-4,5α-epoxy-6β-(N-methyl-3-trifluoromethylcinnamamido)morphinan.tartrate], for which, on μ receptor, the “Ke Naloxone” value is recorded as 142 nM. Also, the “Ke NTI” value at δ receptor stood at 184 nM. Also, on κ receptor, the “selective agonist for κ receptors (in words)” value is “selective agonists for κ receptors” and the “Ke norBNI” value was found to be 1.39 nM.
